In paper PMC12452389, “Arginine-Derived Cationic Surfactants Containing Phenylalanine and Tryptophan: Evaluation of Antifungal Activity, Biofilm Eradication, Cytotoxicity, and Ecotoxicity” (Journal of Xenobiotics, 2025):
Converted amounts (≈) assume the structure as drawn. Like-named read-outs stand apart in the source and are kept apart here. Peptide text beside a SMILES is read from it. * marks the point of attachment. Lauroyl = CCCCCCCCCCCC(=O)*

Legend:
erythrocytes = test: Hemolytic activity assay; assay type: cell-based; details: rabbit erythrocytes
Experimental: Fresh rabbit blood was obtained from the Animal Facility of the CID-CSIC (Research and Development Center, Spanish National Research Council, Barcelona, Spain). Sample collection was conducted in strict compliance with the bioethical guidelines established under Spanish legislation. Erythrocytes were isolated by centrifugation (3000 rpm/10 min). The supernatant was discarded, and the erythrocytes were washed three times with PBS (phosphate-buffered saline, pH 7.4) and then resuspended in PBS at a concentration of 8 × 10^9 cells/mL. Subsequently, varying volumes of a concentrated surfactant solution were added to Eppendorf tubes containing 25 μL of erythrocyte suspension. PBS was then added to bring the total volume to 1 mL. The samples were gently shaken for 10 min at room temperature and centrifuged at 10,000 rpm for 5 min. Hemolysis was evaluated by measuring the absorbance of the supernatant at 540 nm and comparing it to that of a 100% hemolysis control (erythrocytes treated with distilled water). The HC50, defined as the surfactant concentration that induces 50% hemolysis, was determined from the concentration–response curves: % hemolysis= Abstest compound/AbsBasal haemolytic activity ×100

[1] = set-up: method as in PMID 36559096; details: CO2 Headspace test, pass level 60%; cited from earlier work
C. albicans biofilms = test: Eradication of mature biofilm, MTT method; assay type: cell-based, Candida albicans; details: highest concentration tested
Experimental: Candida strains were cultured in SBA at 30 °C for 24 h. Yeast cells were then suspended in RPMI 1640 broth to a final concentration of 1.5 × 10^7 CFU/mL. For mature biofilm formation, 200 μL of these suspensions was transferred to each well of a 48-well microplate and incubated at 30 °C for 24 h. After incubation, the plate was washed with phosphate-buffered saline (PBS) to remove non-adherent cells. Then, surfactant solutions at various concentrations (200 μL), prepared in RPMI 1640, were added to the wells containing the mature biofilms. Plates were incubated again at 30 °C for 24 h. Following this treatment, the RPMI medium was removed, and wells were washed twice with PBS. To assess biofilm viability, 200 μL of MTT solution (3-(4,5-dimethylthiazol-2-yl)-2,5-diphenyltetrazolium bromide) were added to each well, and plates were incubated for 4 h. After incubation, the MTT solution was removed, and 200 μL of dimethyl sulfoxide (DMSO) were added to solubilize the formazan crystals. Absorbance at 540 nm (A540) was then measured using a microplate reader. Controls without the amino acid-based surfactants were included. All experiments were made in quadruplicate, and the results were averaged to ensure accuracy and reproducibility.
In this section, we have tested the ability of these cationic surfactants to eradicate mature fungal biofilms of C. albicans and C. tropicalis. Preformed biofilms of these two strains on 48-well plates were exposed to various concentrations of the synthesized surfactants, and the biofilm was not removed after the treatment was quantified using the MTT method (3-[4,5-dimethylthiazol-2-yl]-2,5 diphenyl tetrazolium bromide) (Figure 4). This method detects viable and metabolically active cells within the biofilm by measuring the reduction in MTT to formazan by active mitochondrial enzymes.

[2] = set-up: method as in PMID 36559096; details: conductivity values; cited from earlier work
[3] = Surface tension, pendant drop tensiometer (cmc, γc); assay type: physicochemical; details: for cmc: from surface tension
Experimental: Surface tension was measured using a custom-built pendant drop tensiometer, as described in detail in reference. Briefly, a droplet of surfactant solution is formed at the tip of a straight-cut Teflon tube. The image of the droplet is captured using a webcam, and its shape is analyzed by fitting the droplet profile to the Laplace–Young equation [14], To minimize evaporation, all measurements were conducted in a saturated humid atmosphere. The use of this technique is especially well-suited for cationic surfactants because it helps to mitigate complications related to surface adsorption. Critical micelle concentration values (cmc) were determined by finding the intersection of the linear fits before and after the break in the curves.

[4] = system: Candida tropicalis ATCC 7349; test: MIC broth microdilution; assay type: cell-based; details: C. tropicalis; for MIC: Candida tropicalis, ATCC7349, read-out: MIC
Experimental: (§1) The antimicrobial activity of these compounds was assessed against selected yeast and bacterial strains: Candida albicans ATCC 90028 (CA9), Candida rugosa ATCC 10571 (CR), Candida glabrata ATCC 66032 (CG), Candida parapsilosis ATCC 22019 (CP), Candida tropicalis ATCC 7349 (CT), Candida auris ATCC 21092 (CA), and Cyberlindnera jadinii ATCC 60459. Frozen yeast stocks were plated on Sabouraud agar (SBA) and incubated at 30 °C for 24 h. Three to four colonies from each strain were then suspended in RPMI 1640 (Roswell Park Memorial Institute medium, Sigma- Aldrich, Merck, Darmstadt, Germany) to prepare bacterial dispersions of ~1.5 × 10^6 CFU/mL.
(§2) A broth microdilution assay was used to calculate MIC values. Twofold serially diluted compounds in RPMI 1640 medium (from 256 to 2 μg/mL), were dispensed (100 μL per well) into a 96-well plate. Then, 100 μL of a yeast starter culture was added to each well to reach a final inoculum of 7.5 × 10^5 CFU/mL. Wells containing only nutrient broth without the tested surfactant served as growth controls. Microbial growth was assessed by turbidity, which reflects increases in biomass and cell count. […] To confirm the obtained MICs, 20 μL of 0.015% (w/v) resazurin was dispensed to each well and incubated for 3 h at 30 °C. Metabolic activity was evidenced by a color change from blue to pink, thereby confirming the MIC value.

[5] = system: Candida glabrata ATCC 66032; test: MIC broth microdilution; assay type: cell-based; details: for MIC: Nakaseomyces glabratus, read-out: MIC
Experimental: as §1, §2

[6] = system: Cyberlindnera jadinii ATCC 60459 (C. jardinii); test: MIC broth microdilution; assay type: cell-based; details: for Selectivity Index (HC50/MIC): C. jardini; for MIC: Williopsis jadinii
Experimental: as §1, §2

[7] = system: Candida rugosa ATCC 10571; test: MIC broth microdilution; assay type: cell-based; details: C. rugosa; for MIC: Diutina rugosa, ATCC10571, read-out: MIC
Experimental: as §1, §2

Candida auris ATCC 21092 = test: MIC broth microdilution; assay type: cell-based; details: C. auris; for MIC: Candidozyma auris, ATCC21092, read-out: MIC
Experimental: as §1, §2

[8] = system: Candida albicans ATCC 90028; test: MIC broth microdilution; assay type: cell-based; details: C. albicans; for MIC: Candida albicans, ATCC90028, read-out: MIC
Experimental: as §1, §2

[9] = system: Candida parapsilosis ATCC 22019; test: MIC broth microdilution; assay type: cell-based; details: C. parapsilosis; for MIC: Lodderomyces parapsilosis, ATCC22019, read-out: MIC
Experimental: as §1, §2

Daphnia magna = test: Acute toxicity, immobilization test; assay type: in vivo
Experimental: Aquatic toxicity evaluation was performed using Daphnia magna following established protocols. This bioassay method employs laboratory-cultured freshwater microcrustaceans to evaluate surfactant toxicity in aquatic environments. Test organisms were utilized during their initial 24 h life stage to ensure consistency. The endpoint measurement focused on mobility impairment, specifically the loss of swimming capability after gentle stimulation lasting 15 s. Testing conditions included controlled water chemistry parameters: pH maintained at 8.0, calcium-to-magnesium ratio of 4:1, and total hardness of 250 mg/L as CaCO3. All experiments were conducted under dark conditions at 20 °C. The experimental design incorporated ten test concentrations for each surfactant compound, distributed in geometric progression. Each concentration level included 20 Daphnia specimens distributed across four replicate groups of five organisms each. Mobility assessment occurred at 48 h post-exposure, with immobilization percentages plotted against concentration using probability–logarithmic scaling.

S. aureus SH1000 [10] = system: S. aureus SH1000; set-up: method as in PMID 19889790; details: cited from earlier work
S. aureus SH1000 [11] = system: S. aureus SH1000; set-up: method as in PMID 19889790; details: cited from earlier work; remark: listed apart in the source
Vibrio fischeri = test: Luminescence reduction test; assay type: cell-based; details: Aliivibrio fischeri, 0.25 h; Vibrio fischeri bioluminescence, 15 min of exposure; 95% confidence intervals in parentheses
Experimental: Ecotoxicological assessment of cationic surfactants was conducted using the Vibrio fischeri luminescent bioassay. This method relies on the measurement of decreased bioluminescent output from marine bacteria following contact with potentially toxic substances. Regression analysis was used to determine the concentration of the compound that caused a 50% reduction (EC50) in the amount of light emitted by the bacteria. The stated toxicity statistics given are based on the bacteria being exposed to the ionic liquid solution for 15 min at 15 °C.

[12] = ATCC66032, 24 h, C. glabrata, RPMI 1640, 24 h, 30 °C
[13] = ATCC66032, C. glabrata, value in parentheses
[14] = ATCC60459, C. jardinii, RPMI 1640, 24 h, 30 °C, read-out: MIC
[15] = ATCC60459, C. jardinii, value in parentheses, read-out: MIC

Molecule | MIC ([4]; RPMI 1640, 24 h, 30 °C) | MIC ([4]; value in parentheses) | MIC [5, 12] | MIC [5, 13] | MIC ([7]; RPMI 1640, 24 h, 30 °C) | MIC ([7]; value in parentheses) | MIC (Candida auris ATCC 21092; RPMI 1640, 24 h, 30 °C) | MIC (Candida auris ATCC 21092; value in parentheses) | MIC ([8]; RPMI 1640, 24 h, 30 °C) | MIC ([8]; value in parentheses) | MIC ([9]; RPMI 1640, 24 h, 30 °C) | MIC ([9]; value in parentheses) | MIC (S. aureus SH1000 [10]) | MBEC (S. aureus SH1000 [11]) | also measured
CCCCCCCCCCCC(=O)NC(Cc1c[nH]c2ccccc12)C(=O)NC(CCCNC(=N)N)C(=O)OC (stereo not drawn) [C12TAM] (Lauroyl-Trp-Arg-OMe; configuration not given here) | 16 µg/mL | 27 µM | 16 µg/mL | 27 µM | 8 µg/mL | 13 µM | 16 µg/mL | 27 µM | 32 µg/mL | 54 µM | 16 µg/mL | 27 µM | – | – | HC50 (erythrocytes; 10 min, room temperature): 24 ± 0.8 µg/mL; HC50 (erythrocytes; value in parentheses): 40 ± 1.6 µM; biodegradation [1]: over 60%; reduction of the metabolic activity of the biofilm (C. albicans biofilms): less than 65%; cmc Cond [2]: 0.5 mM; γc (surface tension at the cmc) [3]: 32.1 ± 2.3 mNm^−1; cmc [3]: 0.65 mM; Selectivity Index (HC50/MIC) ([4]; Table S1): 1.4; Selectivity Index (HC50/MIC) ([5]; C. glabrata, Table S1): 1.4; Selectivity Index (HC50/MIC) ([6]; Table S1): 0.7; MIC ([6]; ATCC60459): 54 µM; MIC ([6]; ATCC60459, 24 h): 32 µg/mL; Selectivity Index (HC50/MIC) ([7]; Table S1): 3; Selectivity Index (HC50/MIC) (Candida auris ATCC 21092; Table S1): 1.4; Selectivity Index (HC50/MIC) ([8]; Table S1): 0.7; Selectivity Index (HC50/MIC) ([9]; Table S1): 1.4
CCCCCCCCNC(=O)C(CCCNC(=N)N)NC(=O)C(N)Cc1ccccc1 (stereo not shown) [PANHC8] | 256 µg/mL | 512 µM | 256 µg/mL | 512 µM | > 256 µg/mL | > 512 µM | > 256 µg/mL | > 512 µM | > 256 µg/mL | > 512 µM | 256 µg/mL | 512 µM | – | – | MIC [6, 14]: > 256 µg/mL; MIC [6, 15]: > 512 µM
dodecyl dimethyl ammonium bromide [DDAB, reference compound] | – | – | – | – | – | – | – | – | – | – | – | – | – | – | EC50 (Daphnia magna; Daphnia magna immobilization, 48 h of exposure, 95% confidence intervals in parentheses): 0.15 (0.14–0.17) μg/mL
O=C(O)c1cn(C2CC2)c2cc(N3CCNCC3)c(F)cc2c1=O [ciprofloxacin] | – | – | – | – | – | – | – | – | – | – | – | – | 4 µg/mL (≈ 12.1 µM) | > 256 µg/mL | –
CCCCCCCCCCCCCCNC(=O)C(CCCNC(=N)N)NC(=O)C(N)Cc1c[nH]c2ccccc12 (stereo not shown) [TANHC14] | 4 µg/mL | 7 µM | 8 µg/mL | 14 µM | 4 µg/mL | 7 µM | 16 µg/mL | 25 µM | 16 µg/mL | 25 µM | 16 µg/mL | 25 µM | – | – | HC50 (erythrocytes; 10 min, room temperature): 16 ± 0.18 µg/mL; HC50 (erythrocytes; value in parentheses): 26 ± 0.3 µM; EC50 (Vibrio fischeri): 2.6 µg/mL (≈ 4.68 µM); EC50 (Daphnia magna; Daphnia magna, 48 h): 0.85 µg/mL (≈ 1.53 µM); cmc Cond [2]: 0.3 mM; γc (surface tension at the cmc) [3]: 32.8 ± 1.2 mNm^−1; cmc [3]: 0.7 mM; Selectivity Index (HC50/MIC) ([4]; Table S2): 3.7; Selectivity Index (HC50/MIC) ([5]; C. glabrata, Table S2): 1.9; Selectivity Index (HC50/MIC) ([6]; Table S2): 1.9; MIC [6, 14]: 8 µg/mL; MIC [6, 15]: 14 µM; Selectivity Index (HC50/MIC) ([7]; Table S2): 3.7; Selectivity Index (HC50/MIC) (Candida auris ATCC 21092; Table S2): 1.1; Selectivity Index (HC50/MIC) ([8]; Table S2): 1.1; Selectivity Index (HC50/MIC) ([9]; Table S2): 1.1
[H]/N=C(\N/C(=N/[H])NCCCCCCNC(=N)NC(=N)Nc1ccc(Cl)cc1)Nc1ccc(Cl)cc1 [chlorhexidine] | – | – | – | – | – | – | – | – | – | – | – | – | 1 µg/mL (≈ 1.98 µM) | > 256 µg/mL | –
CCCCCCCCCCCCCCCC[N+](C)(C)C.[Br-] [CTAB] | – | – | – | – | – | – | – | – | – | – | – | – | 2 µg/mL | > 256 µg/mL | –
CN(C)[C@@H]1C(O)=C(C(N)=O)C(=O)[C@@]2(O)C(O)=C3C(=O)c4c(O)cccc4[C@@](C)(O)[C@H]3C[C@@H]12 [tetracycline] | – | – | – | – | – | – | – | – | – | – | – | – | 0.5 µg/mL (≈ 1.13 µM) | > 256 µg/mL | –
